From paper PMC11527973, “Efficient characterization of multiple binding sites of small molecule imaging ligands on amyloid-beta, tau and alpha-synuclein” (European Journal of Nuclear Medicine and Molecular Imaging, 2024)

How the values were obtained:
[1] = target: T1, pS129-positive αSyn inclusions (Mus musculus, UniProt O55042); experiment: Immunofluorescence staining and colocalization, αSyn PFF-injected mouse brain; conditions: for M1, fraction of A overlapping B / M2, fraction of B overlapping A: Manders' coefficient, αSyn PFF injected mouse, antibody (A) pS129, ligand (B); for Colocalization of ligand with pS129 signal: αSyn-PFF-injected mice, 12 weeks after injection, PPN, periaqueductal gray, SNc, nucleus accumbens
T1 construct: from tissue; host or cells: brain of αSyn PFF-injected C57BL/6J mice

recombinant αSyn fibrils [2] = target: T2, recombinant αSyn fibrils (Homo sapiens, UniProt P37840); experiment: SPR binding kinetics on immobilized αSyn fibrils; conditions: surface CMD200M, surface density 2940-3400 RU, sum2exp model, two components (lines) per analyte; for kon: read-out: ka, rate constant of association
T2 construct: made in house; host or cells: E. coli
Description: SPR measurements were conducted in HEPES-buffered saline (HBS, Teknova, USA) buffer at 20 °C using Biacore instruments T200 and S200 (Cytiva, Uppsala, Sweden). Aβ42, tau, and αSyn recombinant fibrils were immobilized in the flow cell of sensor chips produced by Xantec (Düsseldorf, Germany) and Cytiva by coupling fibril amine groups to sulfo-N-hydroxysuccinimide (sulfo-NHS)-activated carboxylic acid groups on the chip surface. Since no nonbinding fibril(s) were available, the reference flow cell remained empty. Different chip surfaces, including the carboxymethylated dextran surface CM5 (Cytiva, Sweden), the carboxymethyldextran hydrogel surface CMD200M, the linear polycarboxylate hydrogel surface HC30M and HC1500M, the linear polycarboxylate hydrogel (reduced charge) surface HLC30M, and the zwitterionic hydrogel surface ZC150D (all from Xantec, Germany), were tested to obtain a high immobilization density and low nonspecific adsorption of ligands. All steps for surface preparation and immobilization were conducted at a flow rate of 5 µL/min. The surface carboxylic acid groups were activated with 0.2 M sulfo-NHS and 0.1 M 1-ethyl-3-(3-dimethylaminopropyl)carbodiimide (EDC, Xantec) (CM5 and CMD200M: 0.05 M) in 5 mM 2-(N-morpholino)ethanesulfonic acid (MES buffer, abcr Swiss AG, Switzerland) at pH 5.0 for 550 s (CM5 and CMD200M: 180 s) using 5 mM MES (pH 6.5) as the running buffer. K18-tau and αSyn fibrils were diluted to 2.5–10 µM in 5 mM acetate buffer (Fisher Scientific, Switzerland) at pH 4.5 and coupled for 750 s at a flow rate of 5 µL/minute on all surfaces except for ZD150D. Surfaces were blocked with 1 M ethanolamine (Xantec, Germany) for 500 s. On the ZC150D chip, K18-tau, αSyn and Aβ42 were immobilized at 2.5–10 µM in 5 mM MES, pH 6.5, for 750 s to a surface activated with 0.5 M EDC and 0.1 M sulfo-NHS for 600 s in 5 mM MES, pH 6.5. Finally, the surface was blocked with 1 M glycine in 10 mM MES, pH 6.5.

recombinant Aβ42 fibrils [3] = target: T3, recombinant Aβ42 fibrils (Homo sapiens, UniProt P05067); experiment: Fluorescence assay of ligands with Aβ42 fibrils; assay type: binding; conditions: ligand bound to Aβ42 fibrils; emission peaks
T3 construct: Recombinant Aβ42, K18-tau, full-length 2N4R tau (441 aa) and αSyn were expressed; made in house; host or cells: E. coli
Excerpt: (§1) Recombinant Aβ42, K18-tau, full-length 2N4R tau (441 aa) and αSyn were expressed and measured for binding with fluorescent ligands as described previously (details in the supplementary material).
(§2) Recombinant Aβ42, K18 tau, full-length 2N4R tau (441 aa) and αSyn were expressed and produced by E. coli as described previously. As a substrate for HRP, Pierce ECL and Western blotting substrate (Thermo Fisher Scientific, U.S.A.) were used to detect Aβ42 and αSyn. To detect K18 tau, ECL Prime Western blotting detection reagents (Cytiva, U.S.A.) were used. Images of the resulting blots were taken with an ImageQuant LAS 4000 (GE Healthcare). […] For Aβ42, the quantity was 3.7 μg because of a higher dilution. […] K18 tau was detected using a monoclonal tau antibody (anti-tau 4-repeat isoform RD4, clone 1E1/A6). Aβ42 was detected with a monoclonal Aβ antibody (clone BAM-10), and αSyn was detected using a monoclonal αSyn antibody (clone Syn211). […] After incubation of the protein solutions, fibrillization was verified by thioflavin T fluorescence assay: 45 μL of thioflavin T (5 μM, Sigma Aldrich, U.S.A.) was mixed with either 2 μL of the incubated αSyn, 5 μL of K18 tau, full-length 2N4R tau or 5 μL of Aβ42 in a 45 µL quartz cuvette (quartz […] Ultra-Micro Cell, Hellma GmbH, Germany).

recombinant αSyn fibrils [4] = target: T2, recombinant αSyn fibrils; experiment: Fluorescence assay of ligands with αSYN fibrils; assay type: binding; conditions: ligand bound to αSYN fibrils; emission peaks
Excerpt: as §1, §2

[5] = target: T4, pS129-positive αSyn inclusions (Homo sapiens, UniProt P37840); experiment: Immunofluorescence staining and colocalization, PD patient brain slices; conditions: for M1, fraction of A overlapping B / M2, fraction of B overlapping A: Manders' coefficient, sample PD, antibody (A) pS129, ligand (B); for Ligand detection of αSyn inclusions: medulla oblongata tissue slices from two PD patients, costained with pS129 antibody
T4 construct: tissue Netherlands Brain Bank; host or cells: postmortem PD brain, medulla oblongata
Excerpt: Two PD patients, each with a clinical diagnosis confirmed by pathological examination of Lewy bodies (Braak LB 6, without tau and Aβ), were included in this study (detailed information in Table 1). Paraffin-embedded autopsied brain tissues from the medulla oblongata and cerebellum with high αSyn inclusion accumulation were obtained from the Netherlands Brain Bank (NBB), Netherlands (Table 2).
The details on the antibodies and ligand concentrations are described in STable 1. 2. Human paraffin-embedded brain sections (3 µm) were deparaffinized and rehydrated prior to antigen retrieval step (citrate buffer pH 6.0) in a microwave for 20 min at 98 °C. The sections were then costained with anti-αSyn (phospho-S129, pS129) antibody plus fluorescent secondary antibody. Ligands were incubated after secondary antibody incubation for 30 min. Sections were counterstained using 4’,6-diamidino-2-phenylindole (DAPI). Mouse brains were embedded in tissue freezing media (OCT Compound, Tissue Tek, USA) and cut into 30–40 μm thick consecutive coronal sections using a cryostat microtome (CM3050 S, Leica, Germany). All sections spanning the complete rostrocaudal extent of the brain were kept in the correct order and stored at 4 °C in cryoprotect solution (1:1:3 volume ratio of ethylenglycol, glycerol and 0.1 M PBS) until further processing. Anti-αSyn pS129 antibodies, anti-phospho-tau antibodies (AT-8, AT-100), or anti-Aβ1-16 antibody 6E10 plus fluorescent secondary antibody were used as previously described on brain slices from αSyn PFF-injected mice, arcAβ mice, and pR5 mice. Ligands were incubated with secondary antibody for 30 min. Sections were counterstained with DAPI. The brain sections were imaged at 20 × magnification using an Axio Observer Z1 microscope (whole brain slide scanner) and at 63 × magnification using a Leica SP8 confocal microscope (Leica, Germany) for colocalization. It took approximately 1–1.5 h to acquire the tilted human brain slices by a slide scanner in our experiment (20 ×). The time varied depending on the size of the sample. Lambda scans were performed using a Leica SP8 confocal microscope for the emission spectrum of the ligands on the staining as previously described to validate the signal. The images were analyzed using Qupath and Fiji (NIH, U.S.A.). Colocalization analysis of the confocal microscopy images (probe and antibody channels) was performed by using Fiji, and Manders' coefficients (M1, M2) were computed.

[6] = target: T5, tau inclusions (AT-8/AT-100 positive) (Homo sapiens, UniProt P10636, P618L); experiment: Immunofluorescence staining and colocalization, pR5 mouse brain; conditions: for M1, fraction of A overlapping B / M2, fraction of B overlapping A: Manders' coefficient, pR5 mouse
T5 construct: from tissue; host or cells: brain (cortex, hippocampus) of pR5 transgenic mice

[7] = target: recombinant K18 tau fibrils (Homo sapiens, UniProt P10636); experiment: Fluorescence assay of ligands with K18 tau fibrils; assay type: binding; parameters: made in house; host or cells: E. coli; conditions: ligand bound to K18 tau fibrils; emission peaks
Excerpt: as §1, §2

[8] = target: T6, recombinant full-length 2N4R tau fibrils (Homo sapiens, UniProt P10636); experiment: SPR binding kinetics on immobilized full-length 2N4R tau fibrils; conditions: surface ZC150D, surface density 2900 RU, sum2exp model, two components per analyte
T6 construct: full-length 2N4R tau (441 aa); made in house; host or cells: E. coli
Description: [The source words this procedure for another variant and reports this variant under the same test.] (§3) SPR measurements were conducted in HEPES-buffered saline (HBS, Teknova, USA) buffer at 20 °C using Biacore instruments T200 and S200 (Cytiva, Uppsala, Sweden). Aβ42, tau, and αSyn recombinant fibrils were immobilized in the flow cell of sensor chips produced by Xantec (Düsseldorf, Germany) and Cytiva by coupling fibril amine groups to sulfo-N-hydroxysuccinimide (sulfo-NHS)-activated carboxylic acid groups on the chip surface. Since no nonbinding fibril(s) were available, the reference flow cell remained empty. […]
(§4) The immobilized fibrils were stable for a few days. Kinetic constants for binding were determined by injection of a dilution series of 5–8 concentrations of ligand in HBS buffer at a flow rate of 30 µL/minute in duplicate ("full kinetics").
(§5) The data was evaluated using BiaEvaluate v2.03 software (Cytiva, Sweden). Binding kinetics were analyzed globally using different kinetic models, including 1 + 1, a sum of two exponentials model ("heterogeneous ligand" in terms of BiaEvaluate, sum2exp), and a sum of three exponentials model (sum3exp) that was created using the script editor of the software.

recombinant Aβ42 fibrils [9] = target: T3, recombinant Aβ42 fibrils; experiment: SPR binding kinetics on immobilized Aβ42 fibrils; conditions: surface ZC150D, surface density 1770 RU, sum2exp model, two components per analyte
Description: as §3, §4, §5

recombinant Aβ42 fibrils [10] = target: T3, recombinant Aβ42 fibrils; parameters: method as in PMID 27767229; conditions: read-out: EC50, competition with [^3H]X-34; cited from earlier work
[11] = antibody (A) AT-100, ligand (B)

T3 sequence (P05067 672-713 limits assumed): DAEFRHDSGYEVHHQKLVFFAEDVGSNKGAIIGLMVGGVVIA
T5 sequence (P10636 1-441 isoform P10636-8 P301L): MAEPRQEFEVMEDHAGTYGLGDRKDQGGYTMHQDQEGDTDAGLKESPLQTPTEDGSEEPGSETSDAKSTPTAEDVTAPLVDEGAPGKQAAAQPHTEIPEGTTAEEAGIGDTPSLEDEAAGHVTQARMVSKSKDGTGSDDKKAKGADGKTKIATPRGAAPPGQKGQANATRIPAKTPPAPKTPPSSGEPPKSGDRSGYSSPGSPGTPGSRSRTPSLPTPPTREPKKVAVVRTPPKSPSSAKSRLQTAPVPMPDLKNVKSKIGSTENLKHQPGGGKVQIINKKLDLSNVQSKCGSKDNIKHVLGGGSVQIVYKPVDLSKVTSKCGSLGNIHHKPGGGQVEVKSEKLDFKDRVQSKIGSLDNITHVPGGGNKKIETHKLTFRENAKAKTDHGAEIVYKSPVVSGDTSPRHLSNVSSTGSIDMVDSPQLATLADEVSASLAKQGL
recombinant K18 tau fibrils, sequence (P10636 561-685 limits assumed): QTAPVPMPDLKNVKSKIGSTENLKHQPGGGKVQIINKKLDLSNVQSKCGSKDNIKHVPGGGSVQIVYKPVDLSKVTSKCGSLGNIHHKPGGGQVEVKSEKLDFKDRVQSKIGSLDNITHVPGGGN
T6 sequence (P10636 1-441 isoform P10636-8): as the sequence (P10636 1-441 isoform P10636-8 P301L) above, with L301P counted along it

SMILES	M1, fraction of A overlapping B [1]	M2, fraction of B overlapping A [1]	Colocalization of ligand with pS129 signal [1]	ka, rate constant of association (recombinant αSyn fibrils [2])	kon (recombinant αSyn fibrils [2])	Emission wavelength (recombinant Aβ42 fibrils [3])	Emission wavelength (recombinant αSyn fibrils [4])	M1, fraction of A overlapping B [5]	M2, fraction of B overlapping A [5]	Ligand detection of αSyn inclusions [5]	M1, fraction of A overlapping B ([6]; antibody (A) AT-8, ligand (B))	M2, fraction of B overlapping A ([6]; antibody (A) AT-8, ligand (B))	Emission wavelength [7]	ka, rate constant of association [8]	ka, rate constant of association (recombinant Aβ42 fibrils [9])	M1, fraction of A overlapping B [6, 11]	M2, fraction of B overlapping A [6, 11]	Ligand detection of tau inclusions ([6]; pR5 mice, cortex and hippocampus, costained with AT-8)	EC50 (recombinant Aβ42 fibrils [10])
O=C(O)Cc1cc(-c2ccc(-c3cc(CC(=O)O)c(-c4ccc(C(=O)O)s4)s3)s2)sc1-c1ccc(C(=O)O)s1 [HS-84]	0.839	0.838	Colocalization	–	–	–	–	–	–	–	–	–	–	–	–	–	–	–	–
O=C(O)Cc1cc(-c2ccc(-c3cc(CC(=O)O)c(-c4ccc(C(=O)O)s4)s3)c3nsnc23)sc1-c1ccc(C(=O)O)s1 [HS-169]	0.673	0.84	Colocalization	1.45E + 05 M^−1 s^−1	288000 M⁻¹ s⁻¹	650 nm	643 nm	0.81	0.866	bound to pS129-positive αSyn inclusions	0.164	0.279	640 nm	–	–	–	–	–	–
Cc1c(OCC(F)(F)F)ccnc1C[S+]([O-])c1nc2ccccc2[nH]1 (stereo not drawn) [Lan, lansoprazole]	–	–	–	–	–	–	–	–	–	–	–	–	–	lower than 10^3 M^−1 s^−1	lower than 10^3 M^−1 s^−1	–	–	–	–
CC[n+]1c(/C=C/C=C/c2ccc(N(C)C)cc2)sc2ccccc21 [PBB5]	–	–	–	–	–	695 nm	690 nm	–	–	–	0.39	0.09	688 nm	–	–	0.024	0.018	confirmed the presence of PBB5 in tau inclusions	–
O=C(O)Cc1cc(-c2ccc(-c3ccc(C(=O)O)s3)s2)sc1-c1ccc(-c2sc(-c3ccc(-c4ccc(C(=O)O)s4)s3)cc2CC(=O)O)s1 [h-FTAA, Hepta-formylthiophene acetic acid]	–	–	–	111000 M⁻¹ s⁻¹	162000 M⁻¹ s⁻¹	–	–	0.404	0.4	bound to pS129-positive αSyn inclusions	0.215	0.07	–	–	–	0.459	0.16	–	~250 nM
